{"source": "PubChem BioAssay (NCI)", "test_in_all_cases": "NCI tumour cell line growth inhibition, 48 h", "key": {"[1]": {"system": "786-0 renal"}, "[2]": {"system": "A498 renal"}, "[3]": {"system": "A549 NSCLC"}, "[4]": {"system": "ACHN renal"}, "[5]": {"system": "BT-549 breast"}, "[6]": {"system": "CAKI-1 renal"}, "[7]": {"system": "CCRF-CEM leukemia"}, "[8]": {"system": "COLO 205 colon"}, "[9]": {"system": "DU-145 prostate"}, "[10]": {"system": "EKVX NSCLC"}, "[11]": {"system": "HCC-2998 colon"}, "[12]": {"system": "HCT-116 colon"}, "[13]": {"system": "HCT-15 colon"}, "[14]": {"system": "HL-60(TB) leukemia"}, "[15]": {"system": "HOP-62 NSCLC"}, "[16]": {"system": "HOP-92 NSCLC"}, "[17]": {"system": "HS 578T breast"}, "[18]": {"system": "HT29 colon"}, "[19]": {"system": "IGROV1 ovarian"}, "[20]": {"system": "K-562 leukemia"}, "[21]": {"system": "KM12 colon"}, "[22]": {"system": "LOX IMVI melanoma"}, "[23]": {"system": "M14 melanoma"}, "[24]": {"system": "MALME-3M melanoma"}, "[25]": {"system": "MCF7 breast"}, "[26]": {"system": "MDA-MB-231 breast"}, "[27]": {"system": "MDA-MB-435"}, "[28]": {"system": "MOLT-4 leukemia"}, "[29]": {"system": "NCI-H226 lung"}}, "note": "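48-hour exposure; five concentrations; linearly interpolated endpoints. The concentration for 50% growth inhibition is given as GI50. TGI marks complete inhibition of growth.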"}
{"compound": "FC(F)(F)c1ccc(-c2cncn2-c2ccccc2)cc1", "values": [{"measurement": "GI50", "setting": "[1]", "result": 10, "unit": "µM"}, {"measurement": "TGI", "setting": "[1]", "result": 21.9, "unit": "µM"}, {"measurement": "GI50", "setting": "[2]", "result": 12.9, "unit": "µM"}, {"measurement": "TGI", "setting": "[2]", "result": 27.1, "unit": "µM"}, {"measurement": "GI50", "setting": "[3]", "result": 11.9, "unit": "µM"}, {"measurement": "TGI", "setting": "[3]", "result": 27.5, "unit": "µM"}, {"measurement": "GI50", "setting": "[4]", "result": 3.68, "unit": "µM"}, {"measurement": "TGI", "setting": "[4]", "result": 23, "unit": "µM"}, {"measurement": "GI50", "setting": "[5]", "result": 15.1, "unit": "µM"}, {"measurement": "TGI", "setting": "[5]", "result": 40.4, "unit": "µM"}, {"measurement": "GI50", "setting": "[6]", "result": 4.71, "unit": "µM"}, {"measurement": "TGI", "setting": "[6]", "result": "> 100", "unit": "µM"}, {"measurement": "GI50", "setting": "[7]", "result": 2.84, "unit": "µM"}, {"measurement": "TGI", "setting": "[7]", "result": 15.7, "unit": "µM"}, {"measurement": "GI50", "setting": "[8]", "result": 19.1, "unit": "µM"}, {"measurement": "TGI", "setting": "[8]", "result": 47.1, "unit": "µM"}, {"measurement": "GI50", "setting": "[9]", "result": 6.28, "unit": "µM"}, {"measurement": "TGI", "setting": "[9]", "result": 26.2, "unit": "µM"}, {"measurement": "GI50", "setting": "[10]", "result": 17.1, "unit": "µM"}, {"measurement": "TGI", "setting": "[10]", "result": 54.3, "unit": "µM"}, {"measurement": "GI50", "setting": "[11]", "result": 12.3, "unit": "µM"}, {"measurement": "TGI", "setting": "[11]", "result": 26.2, "unit": "µM"}, {"measurement": "GI50", "setting": "[12]", "result": 1.88, "unit": "µM"}, {"measurement": "TGI", "setting": "[12]", "result": 16.3, "unit": "µM"}, {"measurement": "GI50", "setting": "[13]", "result": 18.1, "unit": "µM"}, {"measurement": "TGI", "setting": "[13]", "result": "> 100", "unit": "µM"}, {"measurement": "GI50", "setting": "[14]", "result": 12.7, "unit": "µM"}, {"measurement": "TGI", "setting": "[14]", "result": 35.6, "unit": "µM"}, {"measurement": "GI50", "setting": "[15]", "result": 2.72, "unit": "µM"}, {"measurement": "TGI", "setting": "[15]", "result": 20.7, "unit": "µM"}, {"measurement": "GI50", "setting": "[16]", "result": 2.89, "unit": "µM"}, {"measurement": "TGI", "setting": "[16]", "result": 18.9, "unit": "µM"}, {"measurement": "GI50", "setting": "[17]", "result": 16.4, "unit": "µM"}, {"measurement": "TGI", "setting": "[17]", "result": 47.8, "unit": "µM"}, {"measurement": "GI50", "setting": "[18]", "result": 21.3, "unit": "µM"}, {"measurement": "TGI", "setting": "[18]", "result": "> 100", "unit": "µM"}, {"measurement": "GI50", "setting": "[19]", "result": 12.3, "unit": "µM"}, {"measurement": "TGI", "setting": "[19]", "result": 38.6, "unit": "µM"}, {"measurement": "GI50", "setting": "[20]", "result": 20.9, "unit": "µM"}, {"measurement": "TGI", "setting": "[20]", "result": 77.6, "unit": "µM"}, {"measurement": "GI50", "setting": "[21]", "result": 20.6, "unit": "µM"}, {"measurement": "TGI", "setting": "[21]", "result": 70.8, "unit": "µM"}, {"measurement": "GI50", "setting": "[22]", "result": 5.68, "unit": "µM"}, {"measurement": "TGI", "setting": "[22]", "result": 23.2, "unit": "µM"}, {"measurement": "GI50", "setting": "[23]", "result": 13, "unit": "µM"}, {"measurement": "TGI", "setting": "[23]", "result": 27.1, "unit": "µM"}, {"measurement": "GI50", "setting": "[24]", "result": 21.1, "unit": "µM"}, {"measurement": "TGI", "setting": "[24]", "result": 43.1, "unit": "µM"}, {"measurement": "GI50", "setting": "[25]", "result": 22.7, "unit": "µM"}, {"measurement": "TGI", "setting": "[25]", "result": "> 100", "unit": "µM"}, {"measurement": "GI50", "setting": "[26]", "result": 11.8, "unit": "µM"}, {"measurement": "TGI", "setting": "[26]", "result": 28.6, "unit": "µM"}, {"measurement": "GI50", "setting": "[27]", "result": 24.4, "unit": "µM"}, {"measurement": "TGI", "setting": "[27]", "result": 88.5, "unit": "µM"}, {"measurement": "GI50", "setting": "[28]", "result": 3.9, "unit": "µM"}, {"measurement": "TGI", "setting": "[28]", "result": 27.2, "unit": "µM"}, {"measurement": "GI50", "setting": "[29]", "result": 10.5, "unit": "µM"}]}
